Results from ChEMBL document CHEMBL1146353, “Synthesis of fluorescent molecular probes specific for the receptor of blepharismone, a mating-inducing pheromone of the ciliate Blepharisma japonicum” (2007).
Calls of active or inactive are those of the source. The rule behind the calls is not given here.

Tests used:
[1] = test system: Blepharisma japonicum; assay: Inhibition of blepharismone-induced monotypic pairing of Blepharisma japonicum R1072 upto 1 mM; assay type: functional
[2] = test system: Blepharisma japonicum; assay: Inhibition of blepharismone-induced monotypic pairing of Blepharisma japonicum R1072; assay type: functional

| Compound | Inhibitory concentration [1] | Activity [2] |
| --- | --- | --- |
| O=C(Cc1ccc(-c2ccccc2)cc1)Nc1ccc(O)cc1C(=O)C[C@H](O)C(=O)O | 4.8 µM | – |
| O=C(CCCc1ccc2ccc3cccc4ccc1c2c34)Nc1ccc(O)cc1C(=O)C[C@H](O)C(=O)O | 4 µM | – |
| CC(=O)c1ccccc1NC(=O)CCCc1ccc2ccc3cccc4ccc1c2c34 | >1000 µM | inactive |
| CC(=O)c1ccccc1NC(=O)Cc1ccc(-c2ccccc2)cc1 | >1000 µM | inactive |
